From patent US9873883B2, “Glyphosate resistant plants and associated methods” (Dow AgroSciences LLC, priority 2012, dated 2018)
pIC50: −log10 of the molar value.

Experiments:
[1] = target: T1, Glycine max (soybean) EPSP synthase DGT-1 variant DGT-1 v8 (T→I, P→S; TIPS) (Glycine max, UniProt I1J7U9, P187S/T183I); assay: In vitro kinetic assay (inorganic phosphate production, malachite green); format: biochemical
T1 sequence (I1J7U9 with tags, fused parts or gaps T183I/P187S): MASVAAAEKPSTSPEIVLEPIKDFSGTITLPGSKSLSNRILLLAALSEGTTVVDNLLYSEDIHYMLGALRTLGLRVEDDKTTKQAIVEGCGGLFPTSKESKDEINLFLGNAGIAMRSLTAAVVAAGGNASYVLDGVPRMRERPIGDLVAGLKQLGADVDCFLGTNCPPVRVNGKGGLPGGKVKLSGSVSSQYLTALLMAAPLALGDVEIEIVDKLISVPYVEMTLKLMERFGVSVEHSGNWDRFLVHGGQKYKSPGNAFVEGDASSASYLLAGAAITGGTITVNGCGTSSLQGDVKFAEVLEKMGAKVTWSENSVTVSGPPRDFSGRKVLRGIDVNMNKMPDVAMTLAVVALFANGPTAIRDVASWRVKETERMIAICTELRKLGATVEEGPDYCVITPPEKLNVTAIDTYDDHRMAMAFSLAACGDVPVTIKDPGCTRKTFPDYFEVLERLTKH
Text: (§1) The following Class I enzymes: DGT-1 from Glycine max, DGT-3 from Brassica napus (GENBANK ACC NO: P17688), and DGT-7 from Triticum aestivum (GENBANK ACC NO: EU977181) were used as a comparison. The Class I EPSP synthase enzymes and mutant variants thereof were synthesized and evaluated. A mutation introduced into the plant EPSP synthase enzymes consisted of the Glycine to Alanine mutation made within the EPSP synthase enzyme at a similar location as that of the G96A mutation from the E. coli version of the enzyme. In addition, Threonine to Isoleucine and Proline to Serine mutations were introduced within these Class I EPSP synthase enzymes at analogous positions as that of amino acid 97 (T to I) and amino acid 101 (P to S) in the EPSP synthase of E. coli as described in Funke et al., (2009).
(§2) The location of the amino acid residue which was mutated from glycine to alanine is indicated by the first asterisk. The location of the amino acid residue which was mutated from threonine to isoleucine is indicated by the second asterisk. The location of the third amino acid residue which was mutated from proline to serine is indicated by the third asterisk. These mutations were introduced into different versions of DGT-1, DGT-3, and DGT-7. The different versions of the genes which contain the mutations are described in more detail below.
(§3) Additional constructs containing the dgt-1, dgt-3 and dgt-7 were synthesized. These constructs were used for in vitro testing of the dgt-1 v5, dgt-1 v6, dgt-1 v7, dgt-1 v8, dgt-3 v6, dgt-3 v7, dgt-3 v8, dgt-7 v5, dgt-7 v6, dgt-7 v7, and dgt-7 v8 gene sequences were outsourced to GeneArt for synthesis and cloning. The synthesized genes were cloned into the pET28 expression vector. The resulting constructions were labeled as pDAB102028 containing dgt-1 v5, pDAB102029 containing dgt-1 v6, pDAB102032 containing dgt-1 v7, pDAB102034 containing dgt-1 v8, pDAB100429 containing dgt-3 v6, pDAB100442 containing dgt-3 v7, pDAB100430 containing dgt-3 v8, pDAB102036 containing dgt-7 v5, pDAB102038 containing dgt-7 v6, pDAB102040 containing dgt-7 v7, and pDAB102042 containing dgt-7 v8.
(§4) Recombinant DGT proteins were overexpressed in Rosetta2™ (DE3) cells (Novagen, Madison, Wis.) from the constructs described above. A single colony was used to inoculate 50 mL starter cultures of LB containing chloramphenicol (25 μg/mL) and kanamycin (50 μg/mL) which were cultivated overnight at 37° C. The overnight cultures were used to inoculate 1 L of LB containing chloramphenicol (25 μg/mL) and kanamycin (50 μg/mL). The cultures were grown at 37° C. to an O.D.600=0.6 then placed in an ice water bath for 10 minutes. Expression of the target proteins was achieved by addition of IPTG to a final concentration of 500 μM. Induction was allowed to proceed overnight at 20° C. followed by harvesting via centrifugation at 8,000 rpm for 20 minutes. The cell pellets were stored at −80° C. until required for purification. All purification steps were carried out at 4° C.
(§5) Cell pellets from 1 L cultures were resuspended in 20-30 mL Buffer A (50 mM HEPES pH 7.5, 150 mM KCl, 2 mM DTT, 1 mM EDTA, 20 mM imidazole, and 5% glycerol). COMPLETE™ protease inhibitor cocktail (1 tablet/50 mL, Roche, Indianapolis, Ind.) and lysozyme (1 mg/mL, Sigma-Aldrich, St. Louis, Mo.) were then added and the suspension was stirred for 20 minutes. Cell lysis was performed using a Branson Sonifier 250 (3×60 second bursts) followed by removal of the cell debris by centrifugation at 16,000 rpm for 45 minutes. DGT enzymes were purified to homogeneity in one step via immobilized metal affinity chromatography (IMAC) using a 5 mL HisTrap FF crude column. The column was equilibrated in Buffer A and the sample was loaded in the same buffer. The column was then washed with 10 column volumes of Buffer A followed by elution in a 0-100% Buffer B (50 mM HEPES pH 7.5, 200 mM KCl, 2 mM DTT, 1 mM EDTA, 500 mM imidazole, and 5% glycerol) linear gradient over 25 column volumes. […]

[2] = target: T2, Triticum aestivum (wheat) EPSP synthase DGT-7 variant DGT-7 v8 (T→I, P→S; TIPS) (Triticum aestivum, UniProt B5M6A1, P172S/T168I); assay: as above; format: biochemical
T2 construct: TIPS double mutant
T2 sequence (B5M6A1 with tags, fused parts or gaps T168I/P172S): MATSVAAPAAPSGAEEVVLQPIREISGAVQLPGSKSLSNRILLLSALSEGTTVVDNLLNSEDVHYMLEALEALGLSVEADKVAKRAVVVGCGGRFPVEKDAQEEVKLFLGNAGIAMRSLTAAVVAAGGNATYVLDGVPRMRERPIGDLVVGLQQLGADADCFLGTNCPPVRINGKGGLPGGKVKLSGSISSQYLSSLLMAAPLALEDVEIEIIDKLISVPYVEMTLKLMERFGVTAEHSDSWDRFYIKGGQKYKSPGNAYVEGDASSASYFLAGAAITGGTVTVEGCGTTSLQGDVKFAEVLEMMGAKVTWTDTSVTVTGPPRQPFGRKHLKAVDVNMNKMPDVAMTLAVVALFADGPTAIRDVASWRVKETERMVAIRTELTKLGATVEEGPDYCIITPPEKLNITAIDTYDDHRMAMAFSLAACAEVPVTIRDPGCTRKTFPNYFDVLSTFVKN
Text: as §1, §2, §3, §4, §5

[3] = IC50 (glyphosate), at 60 μM PEP
[4] = tolerance to glyphosate, PEP concentration not given

SMILES	kcat/Km ([1]; PEP, pH 7.5, 1 mM S3P) [M⁻¹ s⁻¹]	kcat/Km ([2]; PEP, pH 7.5, 1 mM S3P) [M⁻¹ s⁻¹]	Km ([2]; read-out: Km for PEP, pH 7.5, 1 mM S3P) [µM]	pIC50 [1, 3]	pIC50 ([1]; IC50 (glyphosate), at 1 mM PEP)	pIC50 [1, 4]	pIC50 [2, 3]	pIC50 ([2]; IC50 (glyphosate), at 1 mM PEP, values greater than 50 are estimates)	pIC50 [2, 4]
C=C(OP(=O)(O)O)C(=O)O [PEP, phosphoenolpyruvate]	12300	13600	60 to 200						
O=C(O)CNCP(=O)(O)O [glyphosate, N-(phosphonomethyl)glycine]				2.23	1.88	2.22 to 2.52	2.44	< 1.10	2.22 to 2.52
